Experimental data: patent US20220380347A1, “INHIBITORS OF CYSTEINE PROTEASES AND METHODS OF USE THEREOF” (Pardes Biosciences, Inc., priority 2020, published 2022)
Where two headings read alike, the source gives them in different places.

Legend:
229E Mpro = 229E Mpro (Human coronavirus 229E, UniProt P0C6X1); test: 229E Mpro enzymatic assay (standard methods, SARS-CoV2 Mpro assay given as exemplary); format: biochemical, human coronavirus (HCov) 229E
Method: Compounds were assayed using standard methods to assess compound activity and IC50. As an exemplary for assessment of the SARS-COV2 Mpro, the C-His6-tagged Mpro (NC_045512) was cloned, expressed in E. coli and purified. The assay buffer contained 20 mM of Tris-HCl (pH 7.3), 100 mM of NaCl, 1 mM of EDTA, 5 mM of TCEP and 0.1% BSA. The final concentrations of the Mpro protein and substrate were 25 nM and 25 μM, respectively, in the Mpro enzymatic assay. The Km of the Mpro substrate for the protease was 13.5 μM.
The compounds were added to an assay plate. […] For no inhibition control (ZPE, zero percent effect), no compound was added.
IC50 values of compounds were calculated with the GraphPad Prism software using the nonlinear regression model of log(inhibitor) vs. response—Variable slope (four parameters). The inhibition activity was calculated using the formula below, IC50 values is calculated using the Inhibition % data.
Inhibition %=[(Sample-Average ZPE)/(Average HPE-Average ZPE)]*100%^#

HCov OC43 = test: HCoV OC43 cytopathic effect (CPE) assay, CellTiter Glo; format: cell-based, human coronavirus (HCov) OC43
Method: Example 238: Evaluation of antiviral activity of compounds against human coronavirus (HCov) 229E and OC43 in the cytopathic effect (CPE) assays
Compounds were assayed using standard methods against multiple coronaviral strains, including HCoV 229E and OC43 strains. The antiviral activity of compounds was calculated based on the protection of the virus-induced CPE at each concentration normalized by the virus control.
Reference compound used was remdesivir; detection reagent: CellTiter Glo.) The CPE were measured by CellTiter Glo following the manufacturer's manual. The antiviral activity of compounds was calculated based on the protection of the virus-induced CPE at each concentration normalized by the virus control.
Cell viability was measured with CellTiter Glo.

[1] = molecular target: COVID-19 (nCoV-2019, SARS-CoV2) Mpro (Severe acute respiratory syndrome coronavirus 2, UniProt P0DTD1); test: COVID-19 (nCoV-2019, SARS-CoV2) Mpro enzymatic assay; format: biochemical; conditions: 25 nM Mpro, 25 μM substrate; read-out: COVID-19 Mpro IC50
[2] = Betacoronavirus 1, OC43, read-out: OC43 IC50 (uM) MEDIAN, median
[3] = read-out: OC43 IC50 (uM) MEDIAN, median

Sequence of 229E Mpro (P0C6X1 2966-3267): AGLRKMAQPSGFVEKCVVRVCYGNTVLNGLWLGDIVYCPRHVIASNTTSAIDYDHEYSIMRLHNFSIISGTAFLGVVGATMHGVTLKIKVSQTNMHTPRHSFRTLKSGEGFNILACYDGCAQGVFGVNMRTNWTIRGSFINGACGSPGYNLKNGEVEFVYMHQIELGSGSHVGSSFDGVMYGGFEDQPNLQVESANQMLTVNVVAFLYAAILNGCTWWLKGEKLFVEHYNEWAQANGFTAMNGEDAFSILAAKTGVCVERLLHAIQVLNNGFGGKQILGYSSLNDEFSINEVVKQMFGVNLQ

Structure (SMILES)	EC50 (229E Mpro; 229E Mpro EC50) [nM]	IC50 (HCov OC43; [2]) [µM]	IC50 [1] [nM]	IC50 (HCov OC43; [3]) [µM]	EC50 (229E Mpro; read-out: 229E Mpro EC50) [nM]	IC50 (HCov OC43; read-out: OC43 IC50 (uM) MEDIAN, median, listed as 961 Isomer 2) [µM]
O=C1CCCCC1C(=O)N(c1ccc(S(F)(F)(F)(F)F)cc1)C(C(=O)NC1CCC(F)(F)CC1)c1cncc(F)c1 (stereo not drawn) [Compound 1114]	2000 to 10000	> 30	10000 to 30000			
CO[C@@H]1C[C@H](C(=O)N(c2ccc(S(F)(F)(F)(F)F)cc2)C(C(=O)NC2CCC(F)(F)CC2)c2ccnnc2)N(C#N)C1 (stereo partly drawn) [Compound 1320, (2R,4R)-1-cyano-N-[2-[(4,4-difluorocyclohexyl)amino]-2-oxo-1-pyridazin-4-yl-ethyl]-4-methoxy-N-[4-(pentafluoro-λ6-sulfanyl)phenyl]pyrrolidine-2-carboxamide]	> 30000	> 30	> 30000			
CO[C@@H]1C[C@H](C(=O)N(c2ccc(C(C)(C)C)cc2)C(C)(C(=O)NC2CCCCC2)c2cccnc2)N(C#N)C1 (single isomer, unassigned) [1230 Isomer 2]	< 2000		< 2000	< 2		
N#CC1(Nc2ccc(S(F)(F)(F)(F)F)cc2)CCCc2ccncc21 (stereo not drawn) [Compound 690b]	> 30000	> 30	> 30000			
N#CC1(C(=O)N(c2ccc(S(F)(F)(F)(F)F)cc2)C(C(=O)NC2CCC(F)(F)CC2)c2cncc(F)c2)CC1 (single isomer, unassigned) [1289 Isomer 2, 1-cyano-N-[2-[(4,4-difluorocyclohexyl)amino]-1-(5-fluoro-3-pyridyl)-2-oxo-ethyl]-N-[4-(pentafluoro-λ^6-sulfanyl)phenyl]cyclopropanecarboxamide]			> 30000	> 30	> 30000	
C[C@@H]1CN(C#N)[C@H]1C(=O)N(c1ccc(S(F)(F)(F)(F)F)cc1)C(C(=O)NC1CCC(F)(F)CC1)c1cncc(F)c1 (single isomer, unassigned) [1211 Isomer 1]	< 2000	< 2	2000 to 10000			
N#CN1CC(F)(F)C[C@@H]1C(=O)N(c1ccc(S(F)(F)(F)(F)F)cc1)C(C(=O)NC1CCC(F)(F)CC1)c1cccnc1 (single isomer, unassigned) [1087 Isomer 1]	< 2000		< 2000	< 2		
CC(C)(C)c1ccc(N(C(=O)[C@H]2C[C@@H](O)CN2C#N)C(C(=O)NC2CCCCC2)c2cccnc2)c(Cl)c1 (stereo partly drawn) [Compound 775, (2R,4R)—N-(4-(tert-butyl)-2-chlorophenyl)-1-cyano-N-(2-(cyclohexylamino)-2-oxo-1-(pyridin-3-yl)ethyl)-4-hydroxypyrrolidine-2-carboxamide]	2000 to 10000	> 30	10000 to 30000			
CO[C@@H]1C[C@H](C(=O)N(c2ccc(S(F)(F)(F)(F)F)cc2)C(C(=O)NC2C[C@@H](C)O[C@@H](C)C2)c2cccnc2)N(C#N)C1 (single isomer, unassigned) [Compound 1185]	< 2000	< 2	< 2000			
CC(C)(C)c1ccc(N(C(=O)[C@H]2[C@H](F)CCN2C#N)C(C(=O)NC2CCCCC2)c2cccnc2)cc1 (single isomer, unassigned) [Compound 910 Isomer 1]	< 2000	< 2	< 2000			
N#CN1CCOC[C@@H]1C(=O)N(c1ccc(C2CC2)cc1F)C(C(=O)NC1CCC(F)(F)CC1)c1cnccc1C(F)(F)F (single isomer, unassigned) [Compound 1313 Isomer 1]	< 2000	< 2	< 2000			
CO[C@@H]1C[C@H](C(=O)N(c2ccc(C(C)(C)C)cc2)C(C)(C(=O)NC2CCC(F)(F)CC2)c2cnccn2)N(C#N)C1 (single isomer, unassigned) [1198 Isomer 2]	< 2000		< 2000	< 2		
CC1(O)CN(C(=O)C(c2cccnc2)N(C(=O)[C@H]2CCCN2C#N)c2ccc(C(C)(C)C)cc2)C1 (single isomer, unassigned) [955 Isomer 2]			10000 to 30000	10 to 30	2000 to 10000	
CO[C@@H]1C[C@H](C(=O)N(c2ccc(S(F)(F)(F)(F)F)cc2)C(C(=O)NC2CCC(F)(F)CC2)c2cnccc2C#N)N(C#N)C1 (stereo partly drawn) [Compound 1200, (2R,4R)-1-cyano-N-[l-(4-cyano-3-pyridyl)-2-[(4,4-difluorocyclohexyl)amino]-2-oxo-ethyl]-4-methoxy-N-[4-(pentafluoro-λ6-sulfanyl)phenyl]pyrrolidine-2-carboxamide]	< 2000	< 2	< 2000			
CC(C)(C)c1ccc(N(C(=O)[C@H]2CCCN2C#N)C(C(=O)NCc2ccncc2)c2cccnc2)cc1 (single isomer, unassigned) [Compound 439 Isomer 2]			2000 to 10000	10 to 30	< 2000	
CO[C@@H]1C[C@H](C(=O)N(c2ccc(S(F)(F)(F)(F)F)cc2)C(C(=O)NCC2(C)COC2)c2cccnc2)N(C#N)C1 (single isomer, unassigned) [1176 Isomer 1]	< 2000	< 2	< 2000			
CC(C)(C)c1ccc(N(C(=O)[C@H]2CCCN2C#N)C(C(=O)N2CCNC(=O)C2)c2cccnc2)cc1 (single isomer, unassigned) [Compound 961 Isomer 2]	2000 to 10000		> 30000			10 to 30
CO[C@@H]1C[C@H](C(=O)N(c2ccc(S(F)(F)(F)(F)F)cc2)C(C(=O)NC2CCOC(C)(C)C2)c2cccnc2)N(C#N)C1 (single isomer, unassigned) [1165 Isomer 2]			10000 to 30000	2 to 10	< 2000	
C[C@@]1(O)C[C@H](C(=O)N(c2ccc(-c3ccccc3)cc2)C(C(=O)NC2CCC(F)(F)CC2)c2cncc(F)c2)N(C#N)C1 (single isomer, unassigned) [1330 Isomer 1]	< 2000		< 2000	< 2		
CO[C@@H]1C[C@H](C(=O)N(c2ccc(S(F)(F)(F)(F)F)cc2)C(C(=O)Nc2ccc3c(c2)OCCO3)c2cccnc2)N(C#N)C1 (single isomer, unassigned) [1170 Isomer 1]	2000 to 10000	2 to 10	10000 to 30000			
N#CN1C[C@H](F)C[C@@H]1C(=O)N(c1ccc(S(F)(F)(F)(F)F)cc1)C(C(=O)NC1CCC(F)(F)CC1)c1cncc(F)c1 (single isomer, unassigned) [Compound 1098 Isomer 2]			< 2000	< 2	< 2000	
N#CN1C[C@H](O)C[C@@H]1C(=O)N(c1ccc(S(F)(F)(F)(F)F)cc1F)C(C(=O)NC1CCC(F)(F)CC1)c1cccnc1 (single isomer, unassigned) [1288a Isomer 2]			2000 to 10000	2 to 10	< 2000	
CC(C)(C)c1ccc(N(C(=O)[C@H]2C[C@@H](O)CN2C#N)C(C(=O)NCc2cccnc2)c2cccnc2)cc1 (single isomer, unassigned) [643 Isomer 1]	< 2000	< 2	< 2000			
C[C@]1(O)CN[C@@H](C(=O)N(c2ccc(S(F)(F)(F)(F)F)cc2)C(C(=O)NC2CCC(F)(F)CC2)c2cnnc3ccccc23)C1 (stereo partly drawn) [Compound 711a]	< 2000	< 2	< 2000			
CC(C)(C)c1ccc(N(C(=O)[C@H]2CCCN2C#N)C(C(=O)NCc2ccccn2)c2cccnc2)cc1 (stereo partly drawn) [Compound 443]	< 2000	10 to 30	2000 to 10000			
Cc1nc[nH]c1C(C(=O)NC1CCC(F)(F)CC1)N(C(=O)[C@H]1C[C@@](C)(O)CN1C#N)c1ccc(S(F)(F)(F)(F)F)cc1 (single isomer, unassigned) [1324 Isomer 2]			10000 to 30000	2 to 10	10000 to 30000	
CS(=O)(=O)[C@H]1C[C@H](C(=O)N(c2ccc(S(F)(F)(F)(F)F)cc2)C(C(=O)NC2CCC(F)(F)CC2)c2cncc(F)c2)N(C#N)C1 (single isomer, unassigned) [1105 Isomer 1]	< 2000	< 2	< 2000			
N#CC1(C(=O)N(c2ccc(S(F)(F)(F)(F)F)cc2)C(C(=O)NC2CCC(F)(F)CC2)c2cncc(F)c2)CC1 (stereo not drawn) [Compound 1289, 1-cyano-N-[2-[(4,4-difluorocyclohexyl)amino]-1-(5-fluoro-3-pyridyl)-2-oxo-ethyl]-N-[4-(pentafluoro-λ^6-sulfanyl)phenyl]cyclopropanecarboxamide]	> 30000	> 30	> 30000			
CS(=O)(=O)[C@H]1C[C@H](C(=O)N(c2ccc(S(F)(F)(F)(F)F)cc2)C(C(=O)NC2CCC(F)(F)CC2)c2cncc(F)c2)N(C#N)C1 (single isomer, unassigned) [1105 Isomer 2]			< 2000	< 2	< 2000	
